For orientation: stoichiometry N means a count of units in the complex or per binding partner.

Assay [1] has as its target GST-tagged Francisella RibD (Francisella tularensis, UniProt A0Q460). The following applies: substrate generated in situ from GTP by E. coli RibA; with and without PEP.
The target of assay [2] is ALFA-tagged RibD (RibD-ALFA), F. novicida (Francisella novicida). The assay is described as follows: pull-down.

Sequence of GST-tagged Francisella RibD (A0Q460 1-355): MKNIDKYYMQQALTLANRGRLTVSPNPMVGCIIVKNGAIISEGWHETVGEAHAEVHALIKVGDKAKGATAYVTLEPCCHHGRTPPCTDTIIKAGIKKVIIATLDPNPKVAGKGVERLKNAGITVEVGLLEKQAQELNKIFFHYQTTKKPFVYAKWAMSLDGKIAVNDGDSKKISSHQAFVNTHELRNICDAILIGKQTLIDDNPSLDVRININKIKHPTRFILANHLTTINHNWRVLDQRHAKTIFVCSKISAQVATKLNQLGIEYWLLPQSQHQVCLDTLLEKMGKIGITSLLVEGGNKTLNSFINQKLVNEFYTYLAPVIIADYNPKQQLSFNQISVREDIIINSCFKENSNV

Regarding `Nc1nc(N[C@@H]2O[C@H](COP(=O)(O)O)[C@@H](O)[C@H]2O)c(N)c(=O)[nH]1` [2,5-diamino-6-ribosyl-amino-4(3H) pyrimidinedione 5′-phosphate], the “fluorescence of the RibD reaction product (ex 408 nm, em 485 nm)” value in assay [1] is “Results showed similar activity for both, with PEP having the same effect on each”. In assay [2], “FLAG-tagged enolase (enolase-FLAG), F. novicida (enzyme)” yielded a stoichiometry N of 1.

Source of the values: paper PMC12742849 (Protein & Cell, 2025).
